This passage reports Kd results from article PMC10392676, “Structural basis of anti-SARS-CoV-2 activity of HCQ: specific binding to N protein to disrupt its interaction with nucleic acids and LLPS” (QRB Discovery, 2021).

For test [1], the target named is CTD of SARS-CoV-2 nucleocapsid (N) protein (Severe acute respiratory syndrome coronavirus 2, UniProt P0DTC9). Put plainly: 1H-15N HSQC NMR titration, […] MHz, one-site fit of chemical shift differences, average of […] residues. The test is classed as binding.
In test [2] the target is NTD of SARS-CoV-2 nucleocapsid (N) protein (Severe acute respiratory syndrome coronavirus 2, UniProt P0DTC9). Described as above. The test is classed as binding.

A word on the Kd: it is the constant that tells how readily two partners part at equilibrium. With `CCN(CCO)CCCC(C)Nc1ccnc2cc(Cl)ccc12` (centres unmarked) [Hydroxychloroquine], the equilibrium dissociation constant (Kd) in test [1] came to 52.1 ± 17.6 µM; in test [2], 112 ± 32.2 µM.
